How the values were obtained:
Experiment in all cases: relative viability (nuclei count vs DMSO), 5 days (fraction); higher = more cells survive
Alpelisib + Linsitinib = compound: Cc1nc(NC(=O)N2CCC[C@H]2C(N)=O)sc1-c1ccnc(C(C)(C)C(F)(F)F)c1 [Alpelisib] + C[C@]1(O)C[C@@H](c2nc(-c3ccc4ccc(-c5ccccc5)nc4c3)c3c(N)nccn32)C1 [Linsitinib] (partner 1 µM)
In short: (§1)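 The day after seeding in 1536-well plates, lung cancer cell lines were treated by pin tool with a single drug, or with a fixed anchor-drug dose together with five library-drug doses (not always all listed) in √10 steps. After 5 days, a combined fix-and-stain solution (final 0.05% Triton X-100, 1% formaldehyde, 1 ug/ml Hoechst) was added. Nuclei counted on 4× images gave relative viability as treated counts over vehicle counts, reported as the median of duplicate plates.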

OSI-027 + Lapatinib = compound: COc1cccc2cc(-c3nc([C@H]4CC[C@H](C(=O)O)CC4)n4ncnc(N)c34)[nH]c12 [OSI-027] + CS(=O)(=O)CCNCc1ccc(-c2ccc3ncnc(Nc4ccc(OCc5cccc(F)c5)c(Cl)c4)c3c2)o1 [Lapatinib] (partner 2 µM)
In short: as §1

Vemurafenib + Pemetrexed = compound: CCCS(=O)(=O)Nc1ccc(F)c(C(=O)c2c[nH]c3ncc(-c4ccc(Cl)cc4)cc23)c1F [Vemurafenib] + Nc1nc2[nH]cc(CCc3ccc(C(=O)N[C@@H](CCC(=O)O)C(=O)O)cc3)c2c(=O)[nH]1 [Pemetrexed] (partner 0.2 µM)
In short: as §1

OSI-027 + Alpelisib = compound: COc1cccc2cc(-c3nc([C@H]4CC[C@H](C(=O)O)CC4)n4ncnc(N)c34)[nH]c12 [OSI-027] + Cc1nc(NC(=O)N2CCC[C@H]2C(N)=O)sc1-c1ccnc(C(C)(C)C(F)(F)F)c1 [Alpelisib] (partner 2 µM)
In short: as §1

| Cell Line | relative viability (Alpelisib + Linsitinib; first compound 0.04 µM) | relative viability (Alpelisib + Linsitinib; first compound 0.1265 µM) | relative viability (Alpelisib + Linsitinib; first compound 0.4 µM) | relative viability (Alpelisib + Linsitinib; first compound 1.265 µM) | relative viability (Alpelisib + Linsitinib; first compound 4 µM) | relative viability (OSI-027 + Lapatinib; first compound 0.01 µM) | relative viability (OSI-027 + Lapatinib; first compound 0.03162 µM) | relative viability (OSI-027 + Lapatinib; first compound 0.1 µM) | relative viability (OSI-027 + Lapatinib; first compound 0.3162 µM) | relative viability (OSI-027 + Lapatinib; first compound 1 µM) | relative viability (Vemurafenib + Pemetrexed; first compound 0.03162 µM) | relative viability (Vemurafenib + Pemetrexed; first compound 0.1 µM) | relative viability (Vemurafenib + Pemetrexed; first compound 0.3162 µM) | relative viability (Vemurafenib + Pemetrexed; first compound 1 µM) | relative viability (OSI-027 + Alpelisib; first compound 0.01 µM) | relative viability (OSI-027 + Alpelisib; first compound 0.03162 µM) | relative viability (OSI-027 + Alpelisib; first compound 0.1 µM) | relative viability (OSI-027 + Alpelisib; first compound 0.3162 µM) | relative viability (OSI-027 + Alpelisib; first compound 1 µM) |
| --- | --- | --- | --- | --- | --- | --- | --- | --- | --- | --- | --- | --- | --- | --- | --- | --- | --- | --- | --- |
| 201T | 0.93 | 0.936 | 0.989 | 0.806 | 0.917 | 1.05 | 1.08 | 0.986 | 0.975 | 0.957 | 0.375 | 0.378 | 0.322 | 0.283 | 0.998 | 1 | 0.963 | 0.919 | 0.545 |
| A549 | 0.647 | – | 0.577 | 0.5 | 0.445 | 1.1 | 0.878 | 0.764 | 0.497 | 0.314 | – | – | – | – | 0.718 | 0.612 | 0.727 | 0.361 | 0.131 |
| A-427 | 1.11 | 1.14 | 1.22 | 1.01 | 1.09 | 1.04 | 1.16 | 0.927 | 0.768 | 0.661 | 0.866 | 0.918 | – | 1.1 | 1.04 | 1.08 | 0.961 | 0.82 | 0.429 |
| ABC-1 | 0.716 | 0.695 | 0.86 | 0.847 | 0.709 | 1.33 | 0.991 | 1.04 | 0.97 | 0.553 | – | – | – | – | 0.98 | 0.921 | 0.903 | 0.628 | 0.537 |
| BEN | 0.859 | 0.857 | 1.14 | 0.828 | 0.959 | 0.626 | 0.529 | 0.419 | 0.355 | 0.281 | 0.627 | 0.832 | 0.445 | 0.619 | 1.02 | 0.695 | 0.67 | 0.447 | 0.319 |
| CAL-12T | 0.801 | 0.67 | 0.814 | 0.784 | 0.76 | 0.648 | 0.589 | 0.499 | 0.375 | 0.418 | 1.16 | 1.15 | 1.52 | 1.17 | 1.28 | 0.907 | 1.09 | 0.954 | 0.391 |
| COR-L23 | 0.836 | 0.889 | 0.856 | 0.69 | 0.592 | 0.887 | 1.2 | 0.744 | 1 | 0.34 | 0.195 | 0.198 | 0.186 | 0.181 | 0.876 | 0.784 | 0.696 | 0.486 | 0.273 |
| Calu-6 | 0.906 | 0.978 | 1.03 | 0.806 | 0.912 | 1.06 | 1.06 | 0.953 | 0.829 | 0.621 | – | – | – | – | 0.917 | 0.974 | 0.75 | 0.697 | 0.42 |
| ChaGo-K-1 | – | – | – | – | – | – | – | – | – | – | 0.247 | 0.267 | 0.261 | 0.274 | – | – | – | – | – |
| EBC-1 | 0.81 | 0.822 | 1.02 | 0.825 | 0.793 | 0.187 | 0.217 | 0.223 | 0.199 | 0.203 | – | – | – | – | 0.79 | 0.909 | 0.823 | 0.478 | 0.343 |
| IA-LM | 0.565 | 0.424 | 0.829 | 0.616 | 0.493 | 0.765 | 0.697 | 0.499 | 0.193 | 0.223 | – | – | – | – | 0.791 | 0.686 | 0.455 | 0.322 | 0.113 |
| LCLC-103H | 1.07 | 1.19 | 1.25 | 0.892 | 0.76 | – | – | – | – | – | 0.495 | 0.515 | 0.377 | 0.456 | 0.852 | 0.922 | 0.991 | 0.877 | 0.767 |
| NCI-H441 | 0.734 | 0.403 | 0.698 | 0.524 | 0.492 | – | – | – | – | – | 0.23 | 0.295 | 0.249 | 0.27 | 0.716 | 0.718 | 0.686 | 0.636 | 0.273 |
| NCI-H522 | – | – | – | – | – | – | – | – | – | – | 0.855 | 0.98 | 0.867 | 1.2 | – | – | – | – | – |
| NCI-H727 | 0.292 | 0.306 | 0.388 | 0.27 | 0.177 | 0.906 | 0.875 | 0.692 | 0.666 | 0.577 | – | – | – | – | 0.567 | 0.63 | 0.491 | 0.419 | 0.378 |
| NCI-H1299 | 0.975 | 0.984 | 1.14 | 0.866 | 0.843 | 1.02 | 1.04 | 1.04 | 1.01 | 0.645 | – | – | – | – | 1.11 | 1.05 | 1.12 | 1.08 | 0.786 |
| NCI-H1648 | – | – | – | – | – | – | – | – | – | – | – | 0.671 | 1.01 | 0.748 | – | – | – | – | – |
| NCI-H1650 | – | – | – | – | – | 0.76 | 0.725 | 0.643 | 0.646 | 0.392 | 0.343 | 0.316 | 0.343 | 0.351 | – | – | – | – | – |
| NCI-H1703 | 0.899 | 0.631 | 0.661 | 0.438 | 0.354 | 1.33 | 1.1 | 0.889 | 0.736 | 0.365 | – | – | – | – | 0.32 | 0.285 | 0.284 | 0.279 | 0.238 |
| NCI-H2170 | – | – | – | – | – | 0.268 | 0.283 | 0.257 | 0.27 | 0.254 | 0.272 | – | 0.265 | 0.289 | 0.856 | 0.888 | 0.593 | 0.688 | 0.355 |
| NCI-H2342 | – | – | – | – | – | – | – | – | – | – | 0.75 | 0.834 | 0.684 | 0.784 | – | – | – | – | – |
| SW 900 | – | – | – | – | – | – | – | – | – | – | 0.494 | 0.466 | 0.457 | 0.478 | – | – | – | – | – |

From the supplement of paper PMC10307832
